Data from paper PMC11892739, “Site-specific molecular glues for the 14-3-3/Tau pS214 protein–protein interaction via reversible covalent imine tethering” (RSC Medicinal Chemistry, 2025).

Legend:
[1] = molecular target: T1, 14-3-3γ/Tau pS324 complex (Homo sapiens, UniProt P61981); test: Differential scanning fluorimetry of 14-3-3γ with Tau pS324 peptide and compounds; format: binding; conditions: compound 30 equiv., Tau pS324 10 equiv.
T1 construct: made in house; host or cells: NiCo21 (DE3) E. coli
T1 sequence (P61981 whole entry, other chains not shown): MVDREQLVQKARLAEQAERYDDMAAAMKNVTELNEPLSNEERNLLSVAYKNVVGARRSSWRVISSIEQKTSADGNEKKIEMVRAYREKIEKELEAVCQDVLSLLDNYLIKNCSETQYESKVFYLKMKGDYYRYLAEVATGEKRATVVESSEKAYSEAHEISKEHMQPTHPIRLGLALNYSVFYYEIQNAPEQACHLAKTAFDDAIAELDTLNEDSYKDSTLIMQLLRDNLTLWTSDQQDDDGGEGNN
Description: (§1) Fig. 5 a Phospho-site selective 14-3-3/Tau PPI stabilization. b SF250μM of selected compounds for stabilization of the 14-3-3γ complex with Tau pS214 and Tau pS324 peptides based on the internal DMSO reference. Mean of two separately performed experiments (see ESI ^† Fig. S9 for the corresponding binding curves). c Differential scanning fluorimetry assay results. Identified melting temperatures (Tm) of 14-3-3γ in the presence of the Tau pS214 or pS324 peptide and compounds 1 and 18. […]
(§2) chromatography (HisTrap high performance cartridges, Cytiva). […] Dialyzed protein was concentrated to ∼40 mg/mL, analyzed by Q -Tof LC/MS, and aliquots were flash -frozen for storage at −80 °C. […]
(§3) DSF was performed using 40 µl samples containing 2.5 µM 14 -3-3ζ, 25 µM Tau peptide (Tau pS2, Tau pS214 or Tau pS324), […] (1% DMSO) and 5x ProteoOrange (Lumiprobe, 5000x stock in DMSO) in 10 mM HEPES, 150 mM NaCl, 50 µM TCEP (pH 7.4). […] Fluorescence intensity was determined using excitation ( λem=525/20 nm) and emission ( λex=570/20 nm) filters.
(§4) Based on these melting curves, the negative derivative melting curve is obtained from which the melting temperature Tm was determined. All described melting temperatures are based on two or three independent experiments, from which the average and standard deviations were determined. […]

[2] = molecular target: T2, 14-3-3γ/Tau pS214 complex (Homo sapiens, UniProt P61981); test: Differential scanning fluorimetry of 14-3-3γ with Tau pS214 peptide and compounds; format: binding; conditions: compound 30 equiv., Tau pS214 10 equiv.
T2 construct: made in house; host or cells: NiCo21 (DE3) E. coli
T2 sequence (P61981 whole entry, other chains not shown): as above
Description: as §1, §2, §3, §4

## CCc1ccc(-c2nccn2-c2ccc(C=O)c(Br)c2)cc1 [Compound 18]
[1]
  increase in 14-3-3γ melting temperature on addition of compound, Tau pS324 complex: ~0.2 °C
[2]
  increase in 14-3-3γ melting temperature on addition of compound, Tau pS214 complex: ~1.7 °C

## O=Cc1ccc(-n2ccnc2-c2ccccc2)cc1Br [Compound 1]
[1]
  increase in 14-3-3γ melting temperature on addition of compound, Tau pS324 complex: ~0.6 °C
[2]
  increase in 14-3-3γ melting temperature on addition of compound, Tau pS214 complex: ~0.6 °C
